The values that follow come from patent US6831199B1, “Pyrimidine compounds and derivatives thereof” (G. D. Searle & Co., priority 1995, dated 2004).

Where a name gives a salt, the structure may show the parent alone.

Assay [1] concerns the target T1, Human vitronectin receptor (αvβ3) (Homo sapiens, UniProt P05106+P06756).
T1 construct: Human vitronectin receptor (αvβ3) was purified from human placenta; from tissue; host or cells: human placenta
Briefly: Vitronectin adhesion assay (solid phase receptor assay, competition with biotinylated vitronectin). In kind it is binding. The note with it: read-out: AvB3 IC50. Put shortly:
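Purified human αvβ3 coated overnight at 4 °C in TBS with 1.0 mM Ca++, Mg++, Mn++, pH 7.4; compounds (top final 1.0×10^−4 M) competed with 1 nM biotinylated vitronectin for 2 h at room temperature. Bound ligand detected by HRP anti-biotin/OPD at A450; values normalized to no-competitor controls, four-parameter curve fit.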

The target in assay [2] is T2, Human fibrinogen receptor (αIIbβ3) (Homo sapiens, UniProt P05106+P08514).
T2 construct: Human fibrinogen receptor (αIIbβ3) was purified from outdated platelets; from tissue; host or cells: outdated human platelets
The experiment in a line: Purified IIb/IIIa receptor assay (solid phase receptor assay, competition with biotinylated vitronectin). In kind it is binding. Particulars: read-out: IIb/IIIa IC50. The method in brief:
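Competition format: 1 nM biotinylated vitronectin plus test compound (highest 1.0×10^−4 M), 2 h at room temperature on wells coated with platelet-derived αIIbβ3. Buffer was TBS containing 1.0 mM Ca, Mg, Mn, pH 7.4. HRP anti-biotin readout at 450 nm; normalized to maximum binding, four-parameter curve fit.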

For the molecule `N=C(N)Nc1cccc(C(=O)NCC(=O)NC(CC(=O)O)c2cc(Cl)cc(Br)c2)c1` (racemic) [Example 214, (±)β-[[2-[[[3-[(aminoiminomethyl)amino]phenyl]carbonyl]amino]acetyl]amino]-3-bromo-5-chlorobenzenepropanoic acid, trifluoroacetate salt], the IC50 was determined as 2.35 nM in assay [1] and 454 nM in assay [2].
The like results for `CCOC(=O)CC(NC(=O)CNC(=O)c1cccc(NC2=NCCS2)c1)c1cccnc1` (stereo not drawn) [Example 100, ethyl β-[[2-[[[3-[(4,5-dihydrothiazol-2-yl)amino]phenyl]carbonyl]amino]acetyl]amino]pyridine-3-propanoate, trifluoroacetate salt] were, in that order, 8560 nM and more than 100000 nM.
The like results for `N=C(N)Nc1cc(C(=O)NCC(=O)NC(CC(=O)O)c2cc(Cl)cc(Br)c2)cc(C(F)(F)F)c1` (racemic) [Example 216, (±)β-[[2-[[[3-[(aminoiminomethyl)amino]-5-(trifluoromethyl)phenyl]carbonyl]amino]acetyl]amino]-3-bromo-5-chlorobenzenepropanoic acid, trifluoroacetate salt] were, in that order, 1 nM and 326 nM.
The like results for `CCC(CC(=O)O)NC(=O)CNC(=O)c1cccc(NC(=N)N)c1` (centres unmarked) [Example 264, 3-[[2-[[[3-[(aminoiminomethyl)amino]phenyl]carbonyl]amino]acetyl]amino]pentanoic acid, trifluoroacetate salt] were, in that order, 2.18 nM and 574 nM.
Turning to `N=C(N)Nc1cccc(C(=O)NCC(=O)NC(CC(=O)O)c2cc(Br)cc(Br)c2)c1` (racemic) [Example 210, (±)β-[[2-[[[3-[(aminoiminomethyl)amino]phenyl]carbonyl]amino]acetyl]amino]-3,5-dibromobenzenepropanoic acid, trifluoroacetate salt], the IC50 in assay [1] was found to be 2.62 nM; in assay [2], 343 nM.
As for `O=C(O)CC(NC(=O)CNC(=O)c1cccc(NC(=O)NCc2nc3ccccc3[nH]2)c1)c1cc(Cl)cc(Cl)c1` (stereo not drawn) [Example 272, β-[[2-[[[3-[[[[(1H-benzimidazol-2-yl)methyl)amino]carbonyl]amino]phenyl]carbonyl]amino]acetyl]amino]-3,5-dichlorobenzenepropanoic acid, trifluoroacetate salt], the IC50 in assay [1] was 893 nM; in assay [2], 8210 nM.
The like results for `CC(C)Oc1cc(OC(C)C)cc(C(CC(=O)O)NC(=O)CNC(=O)c2cccc(NC(=N)N)c2)c1` (stereo not drawn) [Example 275, β-[[2-[[[3-[(aminoiminomethyl)amino]phenyl]carbonyl]amino]acetyl]amino]-3,5-bis(1-methylethoxy)benzenepropanoic acid, trifluoroacetate salt] were, in that order, 6.98 nM and 1200 nM.
Consider `C#C[C@H](CC(=O)O)NC(=O)CNC(=O)c1cccc(N/C(N)=N\C(N)=O)c1` [Example 171, 3S-[[2-[[[3-[[amino[(aminocarbonyl)imino]methyl]amino]phenyl]carbonyl]amino]acetyl]amino]-4-pentynoic acid, trifluoroacetate salt, hydrate], for which the values for the IC50 in assay [1] and in assay [2] were 0.35 nM and 83.2 nM, respectively.
On to `N=C(N)Nc1cccc(C(=O)NCC(=O)NC(CC(=O)O)c2cc(Br)cc(Cl)c2O)c1` (stereo not drawn) [Example 265, β-[[2-[[[3-[(aminoiminomethyl)amino]phenyl]carbonyl]amino]acetyl]amino]-5-bromo-3-chloro-2-hydroxybenzenepropanoic acid, trifluoroacetate salt], for which the IC50 in assay [1] stood at 6.19 nM; in assay [2] it was 706 nM.
The like results for `O=C(O)CC(NC(=O)CNC(=O)c1cccc(NC(=O)NCc2ccccc2)c1)c1cc(Cl)cc(Cl)c1` (stereo not drawn) [Example 269, 3,5-dichloro-β-[[2-[[[3-[[[(phenylmethyl)amino]carbonyl]amino]phenyl]carbonyl]amino]acetyl]amino]benzenepropanoic acid, monohydrate] were, in that order, 209 nM and 25400 nM.
